Assay results published in patent publication US8552183B2, “Process for the covalent coupling of two molecules by means of a diels-alder reaction with inverse electron requirement” (Deutsches Krebsforschungszentrum Stiftung des Offentlichen …, priority 2006, dated 2013).

Legend:
Type in all cases: physicochemical
[1] = DARinv kinetic measurement, tetrazines with dienophile 28 (photometry at 520 nm); conditions: second order
Description: (§1) Exploratory kinetic DARinv measurements for the produced dienes and dienophiles show the expected broad reaction behavior.
(§2) Legend: rate constants for the reaction for the reaction DARinv of dienes with dienophiles in liter mol^−1s^−1; n.d. means not yet measured. n.d(+) means: reaction is carried out, however, is too slow for the measurements, DAR adduct is characterized.
(§3) The conduction is very simple since the tetrazines have an absorption maximum of sufficient intensity at 520 nm whose reduction can be very well traced by means of photometry. The kinetic analysis supplies a rate law of second order.

[2] = DARinv kinetic measurement, tetrazines with dienophile 17; conditions: second order
Description: as §1, §2, §3

[3] = DARinv kinetic measurement, tetrazines with dienophile 27
Description: as §1, §2, §3

[4] = DARinv kinetic measurement, tetrazines with dienophile 26; conditions: second order
Description: as §1, §2, §3

[5] = DARinv kinetic measurement, tetrazines with dienophile 13 (Reppe-ester); conditions: second order
Description: as §1, §2, §3

[6] = DARinv kinetic measurement, tetrazines with dienophile 16; conditions: second order
Description: as §1, §2, §3

[7] = DARinv kinetic measurement, tetrazines with dienophile 14; conditions: second order
Description: as §1, §2, §3

[8] = DARinv of a methylene-group dienophile, reaction time; conditions: room temperature; reacts very slowly
Description: A twofold substituted double bond as occurring in fatty acids or lipids, only reacts very slowly under normal conditions in the sense of DARinv. A methylene group, such as in the perilla alcohol, also reacts very slowly at room temperature (60 hours) in the sense of the DARinv thereby forming the expected adduct. However, as soon as a double bond is integrated within a carbocyclic ring system, it reacts much more rapidly than dienophile, the reactivity decreasing with increasing ring size, starting with the cyclopropene, and passing through a minimum with cyclohexene. In ring systems greater than seven rings, triple bonds can also react as inverse dienophiles.

[9] = with dienophile 27, lower part of Table 2 (drawing 12)
[10] = with dienophile 27, upper part of Table 2 (drawing 3)

SMILES: COC(=O)c1nnc(C(=O)OC)nn1
- rate constant k of DARinv [1]: 0.022 L/mol/s
- rate constant k of DARinv [2]: 0.13 M⁻¹ s⁻¹
- rate constant k of DARinv [3, 9]: 0.0048 M⁻¹ s⁻¹
- rate constant k of DARinv [3, 10]: 0.0036 M⁻¹ s⁻¹
- rate constant k of DARinv [4]: 0.0028 L/mol/s
- rate constant k of DARinv [5]: 3.4 M⁻¹ s⁻¹
- rate constant k of DARinv [6]: 0.44 M⁻¹ s⁻¹
- rate constant k of DARinv [7]: 1.63 M⁻¹ s⁻¹

SMILES: COC(=O)CNC(=O)c1nnc(C(=O)NCC(=O)OC)nn1
- rate constant k of DARinv [1]: 0.028 L/mol/s
- rate constant k of DARinv [2]: 0.18 M⁻¹ s⁻¹
- rate constant k of DARinv [3, 9]: 0.0073 M⁻¹ s⁻¹
- rate constant k of DARinv [3, 10]: 0.0069 M⁻¹ s⁻¹
- rate constant k of DARinv [4]: 0.0056 L/mol/s
- rate constant k of DARinv [5]: 0.028 M⁻¹ s⁻¹
- rate constant k of DARinv [6]: 0.44 M⁻¹ s⁻¹
- rate constant k of DARinv [7]: 0.048 M⁻¹ s⁻¹

SMILES: O=C(NCCO)c1nnc(C(=O)NCCO)nn1
- rate constant k of DARinv [1]: 0.023 L/mol/s
- rate constant k of DARinv [2]: 0.06 M⁻¹ s⁻¹
- rate constant k of DARinv [3, 9]: 0.008 M⁻¹ s⁻¹
- rate constant k of DARinv [3, 10]: 0.0067 M⁻¹ s⁻¹
- rate constant k of DARinv [4]: 0.0053 L/mol/s
- rate constant k of DARinv [5]: 0.2 M⁻¹ s⁻¹
- rate constant k of DARinv [6]: 0.11 M⁻¹ s⁻¹
- rate constant k of DARinv [7]: 0.69 M⁻¹ s⁻¹

SMILES: COC(=O)CNC(=O)c1nnc(C(=O)N(C)C)nn1
- rate constant k of DARinv [1]: <10^−4 liter mol^−1s^−1
- rate constant k of DARinv [4]: <10^−4 liter mol^−1s^−1
- rate constant k of DARinv [5]: 0.014 M⁻¹ s⁻¹

SMILES: C=C(C)[C@@H]1CC=C(CO)CC1 [perilla alcohol]
- reaction time of DARinv forming the expected adduct [8]: 60 h
